The values that follow come from paper PMC7508162 (Frontiers in Pharmacology, 2020).

In one test the target is T1, NPP4 (Homo sapiens, UniProt Q9Y6X5).
T1 construct: 1.4 µg of NPP4 (soluble form expressed in insect cells and purified); made in house; host or cells: Sf9 insect cells
T1 sequence (Q9Y6X5 16-407 limits assumed): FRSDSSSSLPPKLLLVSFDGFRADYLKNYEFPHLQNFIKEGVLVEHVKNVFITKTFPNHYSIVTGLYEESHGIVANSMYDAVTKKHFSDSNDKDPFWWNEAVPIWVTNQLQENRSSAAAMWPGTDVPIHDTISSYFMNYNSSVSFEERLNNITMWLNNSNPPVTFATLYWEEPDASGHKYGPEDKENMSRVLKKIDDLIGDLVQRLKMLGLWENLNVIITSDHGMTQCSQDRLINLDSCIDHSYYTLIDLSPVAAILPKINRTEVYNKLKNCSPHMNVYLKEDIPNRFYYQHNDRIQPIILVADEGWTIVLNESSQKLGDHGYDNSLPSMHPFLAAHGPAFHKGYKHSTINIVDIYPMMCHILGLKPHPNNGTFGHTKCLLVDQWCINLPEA
Put plainly: NPP4 assay with AP4A as substrate, luciferin-luciferase detection. It is filed as biochemical. The settings on record: for inhibition at 10 µM: 10 µM test compound; for Ki: 20 µM AP4A, read-out: Ki ± SEM. The method, then: Soluble NPP4 was expressed in Sf9 insect cells as recently described in detail ([Lopez et al., 2020]). Diadenosine tetraphosphate (AP4A) was employed as a substrate which is cleaved by NPP4 to ATP and AMP. The reaction product ATP was quantified by luciferin-luciferase reaction ([Lopez et al., 2020]). A mixture of 1.4 µg of NPP4 (soluble form expressed in insect cells and purified) ([Lopez et al., 2020]), 10 µM of test compound, 2 % DMSO, and 20 µM of AP4A as a substrate were incubated for 60 min at 37°C with gentle shaking. The reaction was terminated by heating at 90°C for 5 min, and after cooling down on ice, 50 µl of D-luciferin dissolved in buffer (300 mM Tris-HCl, 15 mM MgCl2, 100 ng D-luciferin, pH 7.8) and 50 µl of luciferase (50 ng dissolved in H2O) were added. The firefly luciferase reacts with D-luciferin in the presence of ATP produced by NPP4. The resulting luminescence was measured between 10–14 min at 560 nm using a BMG PheraStar FS plate reader (BMG Labtech GmbH, Ortenberg, Germany).

For a further test, the target named is T2, human NPP5 (Homo sapiens, UniProt Q9UJA9).
T2 construct: the catalytic domains of the enzymes were amplified and sub-cloned into the expression vector pACGP67 A/B; 9xHis (C); made in house; host or cells: Sf9 insect cells (baculovirus, pACGP67 A/B)
T2 sequence (Q9UJA9 25-431 limits assumed): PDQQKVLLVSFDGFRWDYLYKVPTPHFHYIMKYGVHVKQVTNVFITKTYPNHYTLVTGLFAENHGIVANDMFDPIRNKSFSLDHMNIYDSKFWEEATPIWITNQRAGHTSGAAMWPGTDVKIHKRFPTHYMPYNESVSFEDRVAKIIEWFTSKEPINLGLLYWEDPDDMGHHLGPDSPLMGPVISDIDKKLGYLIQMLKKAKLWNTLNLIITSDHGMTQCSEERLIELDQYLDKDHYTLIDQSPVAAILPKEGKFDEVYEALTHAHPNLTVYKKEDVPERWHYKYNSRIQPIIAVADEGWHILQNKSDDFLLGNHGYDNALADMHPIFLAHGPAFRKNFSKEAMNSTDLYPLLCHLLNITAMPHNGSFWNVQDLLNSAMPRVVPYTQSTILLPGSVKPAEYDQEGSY
Put plainly: NPP5 assay with ϵ-NAD+ as substrate. It is filed as biochemical. The following applies: for inhibition at 10 µM: 10 µM test compound; for Ki: 20 µM ϵ-NAD+, read-out: Ki ± SEM. The source says:
The cDNAs of the human enzymes NPP1, NPP3, NPP5, CD38 and CD73 (Genbank accession no. NM_006258, NM_005021, NM_021572, NM_ 001775, and NM_002526, respectively) were obtained from Origene (Rockville, USA). Soluble enzymes were produced as previously reported with some modifications ([Lee et al., 2015]; [Junker et al., 2019]). Briefly, the catalytic domains of the enzymes were amplified and sub-cloned into the expression vector pACGP67 A/B modified with the addition of 9 x histidine tag (His-tag) at the C-terminus (except for NPP1). The plasmids were transfected in Sf9 insect cells using Cellfectin™ II Reagent (Thermo Fisher Scientific, MA, USA) and ProEasy™ baculovirus linearized DNA (Cat.#A10S, AB Vector, LLC). Protein expression was conducted for 48 h at 27°C. The signal peptide sequence of the expression vector shuttled the proteins into the supernatant. The supernatant medium was collected, and the enzymes were purified using HisPur™ Ni^2+-NTA spin columns according to the manufacturer’s protocol. The protein concentration was determined by the method previously described by [Lowry et al. (1951)].
The assays were performed in analogy to published procedures ([Blacher et al., 2015]). The enzymatic activity of human NPP3 and NPP5 (soluble forms expressed in insect cells and purified as previously described ([Lee et al., 2015]; [Lopez et al., 2020]) was measured using 1,N^6-etheno-nicotinamide adenine dinucleotide (ϵ-NAD^+) as a substrate, which is hydrolyzed to fluorescent 1,N^6-etheno-AMP (ϵ-AMP). The enzymatic reactions were performed in reaction buffer [10 mM N-cyclohexyl-2-aminoethanesulfonic acid (CHES), 2 mM CaCl2, and 1 mM MgCl2, pH 9.0 in H2O]. Purified NPP3 (90 ng) or NPP5 (400 ng), 20 µM of ϵ-NAD^+ and 10 µM of the test compound were incubated for 30 min at 37°C. The relative fluorescence at 270 nm excitation and 420 nm emission was detected by a fluorescence microplate reader (Flexstation, Medical Devices LLC. USA, Softmax Pro software to collect the data).

In the case of `CCCCNc1nc2c(NC)ncnc2n1[C@@H]1O[C@H](COP(=O)(O)OP(=O)(O)C(Br)(Br)P(=O)(O)O)[C@@H](O)[C@H]1O` [Compound 33, (Dibromo((((((2R,3S,4R,5R)-5-(8-(butylamino)-6-(methylamino)-9H-purin-9-yl)-3,4-dihydroxy-tetrahydrofuran-2-yl)methoxy)(hydroxy)phosphoryl)oxy)-(hydroxy)phosphoryl)methyl)-phosphonic Acid], the figures for the inhibition at 10 µM at NPP4 and at human NPP5 were 4% and 1%, respectively. Also, the Ki at NPP4 and at human NPP5 was greater than 10 µM each time.
Turning to `CCCCSc1nc2c(N)ncnc2n1[C@@H]1O[C@H](COP(=O)(O)OP(=O)(O)C(Br)(Br)P(=O)(O)O)[C@@H](O)[C@H]1O` [Compound 31, (((((((2R,3S,4R,5R)-5-(6-Amino-8-(butylthio)-9H-purin-9-yl)-3,4-dihydroxytetrahydrofuran-2-yl)methoxy)(hydroxy)-phosphoryl)oxy)(hydroxy)phosphoryl)dibromomethyl)-phosphonic Acid], on NPP4, the inhibition (in general, the change of the read-out against control, counted positive when it falls) at 10 µM amounted to 2% and the Ki (usually a dissociation constant, usually derived from enzyme kinetics or from competition with a known ligand) was greater than 10 µM. At human NPP5, the inhibition at 10 µM was found to be 2% and the inhibitory constant (Ki) was greater than 10 µM.
For the compound `CCN(CC)c1ncnc2c1ncn2[C@@H]1O[C@H](COP(=O)(O)OP(=O)(O)C(Br)(Br)P(=O)(O)O)[C@@H](O)[C@H]1O` [ARL67156, (Dibromo((((((2R,3S,4R,5R)-5-(6-(diethylamino)-9H-purin-9-yl)-3,4-dihydroxytetrahydrofuran-2-yl)methoxy)-(hydroxy)-phosphoryl)oxy)(hydroxy)phosphoryl)methyl)-phosphonic Acid, reference compound], on NPP4, the inhibition at 10 µM is -1% and the inhibitory constant (Ki) was greater than 10 µM. For the same compound, on human NPP5, the inhibition at 10 µM was -3% and the inhibition constant Ki was greater than 10 µM.
